Results reported in patent US20050031597A1, “Cells and improved method for preserving cells” (priority 2003, published 2005).

Tests used:
[1] = system: human erythrocytic cells; test: Trehalose uptake by erythrocytic cells (anthrone assay, HPLC); assay type: cell-based
Experimental: FIG. 5 graphically illustrates the loading efficiency of trehalose into human erythrocytic cells as a function of external trehalose concentration at respective temperatures of 4° C. and 37° C. Erythrocytic cells were exposed to trehalose for 18 hours at either 4° C. or 37° C. The trehalose concentration in the incubation medium varied between 230 mM and 1000 mM. Each incubation buffer contained trehalose (between 230 mM and 1000 mM) and 100 mOsm PBS pH 7.2. Increase in the trehalose concentration in the loading medium results in an increase in the sugar uptake, reaching about 100 mM cytoplasmic trehalose in erythrocytes incubated in 1000 mM trehalose and 100 mOsm PBS. At 4° C., the uptake was very limited, being about 25 mM. The trehalose intake was measured using anthrone assay and confirmed by high performance liquid chromatography. It is clear that there was substantial loading at 37° C., but not at 4° C. Furthermore, trehalose loading was not significant unless the extracellular cellular trehalose concentration gives a hyperosmotic pressure.
FIG. 7 graphically illustrates trehalose uptake (i.e., intracellular trehalose mM) and hemolysis (i.e., % hemolysis) as a function of incubation temperature (° C.). The incubation temperature was varied between 4° C. and 37° C. […] Between 4° C. and 30° C., the cytoplasmic trehalose was very low (between 1 and 4 mM).
100 mOsm ADSOL contains 24 mM glucose, 0.43 mM adenine, 33.3 mM NaCl and 8.9 mM mannitol. Four different temperatures of incubation were used: 4° C., 23° C., 37° C. and 41° C. […] At 23° C., the uptake was higher than at 4° C. and increased with increase of the time of incubation reaching 22 mM intracellular trehalose. At 37° C., the highest uptake of trehalose by the erythrocytic cells was observed within 16 hours (60 mM). At 41° C., the uptake was slightly higher than that observed at 37° C. within 6 hours.

[2] = system: platelets; test: Stability of platelets during incubation (microscopy, flow cytometric analysis); assay type: cell-based, human
Experimental: The stability of the platelets during a 4 hours incubation period was studied using microscopy and flow cytometric analysis. […] No signs of microvesicle formation could be observed after 4 hours incubation, as can be judged by the stable relative proportion of microvesicle gated cells (less than 3%). The formation of microvesicles is usually considered as the first sign of platelet activation (Owners et al., Trans. Med. Rev., 8, 27-44, 1994). Characteristic antigens of platelet activation include: glycoprotein 53 (gp53, a lysosomal membrane marker), PECAM-1 (platelet endothelial cell adhesion molecule-1, an alpha granule constituent), and P-selection (an alpha granule membrane protein).

[3] = system: erythrocytic cells; test: Percent hemolysis of erythrocytic cells during loading or incubation; assay type: cell-based; settings: for percent hemolysis: 800 mM trehalose, 100 mOsm ADSOL, 6.6 mM K-phosphate
Experimental: FIG. 9 graphically illustrates % hemolysis of loaded cells as a function of time (hours) of incubation in 300 mOsm PBS pH 7.2. The erythrocytic cells were loaded in 700 mM trehalose in 100 mOsm PBS pH 7.2 at 35° C. for 16 hours. After the loading step, the cells were incubated in 300 mOsm PBS pH 7.2 between 1 and 25 hours. This buffer was used for washing the loaded cells and it was important to determine the stability of the loaded cells when they were suspended in this buffer. Cell stability was assessed by measuring the percent hemolysis over the course of 25 hours. […] Between 7 and 25 hours, there was only a small change in the percent hemolysis (from about 25% to about 30%).
FIG. 10 graphically illustrates time course (incubation time, hours) of hemolysis(%) of trehalose-loaded cells as a function of the composition of the incubation buffer. Erythrocytic cells were loaded in 700 mM trehalose in 100 mOsm PBS pH 7.2 for 16 hours at 35° C. They were washed with 300 mOsm PBS pH 7.2 and were subsequently transferred to storage media with increasing trehalose concentrations (between 100 mM and 300 mM trehalose) added to 100 mOsm PBS pH 7.2. The percent hemolysis was measured over the course of 3 hours. […]
At 23° C., the percent hemolysis increases to 7% during 6 hours of incubation. At 37° C., between 10 and 12% hemolysis is observed during incubation of erythrocytic cells between 6 and 9 hours. […] Such intracellular concentration of trehalose provides high survival of erythrocytic cells after freeze-drying and rehydration, therefore these conditions (incubation in trehalose medium between 6 and 9 hours at 37° C.) can be used for loading erythrocytic cells.

[4] = about 37° C., about nine(9) hours

intracellular trehalose ([1]; 800 mM trehalose, 100 mOsm ADSOL, 6.6 mM K-phosphate, 4° C., 16 hours): 10 mM
intracellular trehalose ([1]; 800 mM trehalose, 100 mOsm ADSOL, 6.6 mM K-phosphate, 23° C.): 22 mM
intracellular trehalose ([1]; 800 mM trehalose, 100 mOsm ADSOL, 6.6 mM K-phosphate, 37° C., within 16 hours): 60 mM
cytoplasmic trehalose ([1]; 800 mM trehalose, 100 mOsm ADSOL, 6.6 mM K-phosphate, nine(9) hours at 4° C.): about 10 mM
cytoplasmic trehalose ([1]; 800 mM trehalose, 100 mOsm ADSOL, 6.6 mM K-phosphate, nine(9) hours at 23° C.): about 22 mM
cytoplasmic trehalose ([1]; 800 mM trehalose, 100 mOsm ADSOL, 6.6 mM K-phosphate, nine(9) hours at 37° C.): about 60 mM
cytoplasmic trehalose ([1]; 6 hours in 800 mM trehalose in 100 mOsm PBS pH 7.2, 37° C.): up to 35 mM
cytoplasmic trehalose uptake ([1]; 18 hours, 4° C.): about 25 mM
cytoplasmic trehalose ([1]; 18 hours, 37° C., 1000 mM trehalose and 100 mOsm PBS): about 100 mM
trehalose (mM) to incubation (hours) loading gradient ([1]; about 23° C.): about 0.75
trehalose (mM) to incubation (hours) loading gradient [1, 4]: about 1.25
intracellular trehalose ([1]; loaded in 400 mM trehalose in 100 mOsm PBS at 35° C. for 16 hours): 3 mM
intracellular trehalose ([1]; loaded in 800 mM trehalose in 100 mOsm PBS at 35° C. for 16 hours): 60 mM
trehalose left in the cells after freeze-drying ([1]; loaded in 800 mM trehalose/100 mOsm PBS 16 hours about 35° C., washed, freeze-dried): about 75 mM
platelet morphology ([2]; 4 hours incubation at 37° C., 25 mM external trehalose): No morphological changes
platelet morphology ([2]; 4 hours incubation in 75 mM trehalose): swollen
relative proportion of microvesicle gated cells ([2]; after 4 hours incubation): less than 3%
Structure (SMILES): OC[C@H]1O[C@H](O[C@H]2O[C@H](CO)[C@@H](O)[C@H](O)[C@H]2O)[C@H](O)[C@@H](O)[C@@H]1O [trehalose]
percent hemolysis ([3]; 23° C., 6 hours): 7%
percent hemolysis ([3]; 23° C., nine(9) hours): about 7%
percent hemolysis ([3]; 37° C., nine(9) hours): about 12%
hemolysis (%) to incubation (hours) hemolysis gradient ([3]; about 23° C.): about 0.38
hemolysis (%) to incubation (hours) hemolysis gradient [3, 4]: about 0.25
percent hemolysis of trehalose-loaded cells ([3]; loaded in 700 mM trehalose/100 mOsm PBS 35° C. 16 hours, start of incubation in 300 mOsm PBS pH 7.2): about 7%
percent hemolysis of trehalose-loaded cells ([3]; loaded in 700 mM trehalose/100 mOsm PBS, 7 hours in 300 mOsm PBS pH 7.2): about 25%
percent hemolysis of trehalose-loaded cells ([3]; loaded in 700 mM trehalose/100 mOsm PBS, 25 hours in 300 mOsm PBS pH 7.2): about 30%
percent hemolysis of trehalose-loaded cells ([3]; storage medium 300 mM trehalose in 100 mOsm PBS, over the course of 3 hours): about 4%
